Source: patent US10483329B2, “Hole transporting material, hole transporting layer, OLED display panel electronic device comprising the same” (SHANGHAI TIANMA AM-OLED CO., LTD., priority 2016, dated 2019)
Values after ≈ are worked out from the molar mass of the structure shown.

Experiment: Solubility in NMP
Format: physicochemical
Conditions: organic solvent or mixture; solvent NMP (N-methylpyrrolidone)

| solubility | SMILES |
| --- | --- |
| 5.2 mg/mL (≈ 6.24 mM) | CC1(C)c2cc(N(c3ccc(-c4ccccc4)cc3)c3ccc(-c4ccccc4)cc3)ccc2-c2ccc(N(c3ccc(-c4ccccc4)cc3)c3ccc(-c4ccccc4)cc3)cc21 [Comparison Example 2, reference compound] |
| 2.9 mg/mL (≈ 3.42 mM) | Cc1cccc(C)c1-c1ccc(N(c2ccc(-c3ccccc3)cc2)c2ccc(-c3ccc(N(c4ccc(-c5ccccc5)cc4)c4ccc(-c5c(C)cccc5C)cc4)cc3)cc2)cc1 [Comparison Example 3, reference compound] |
| 2.2 mg/mL (≈ 3.07 mM) | c1ccc(-c2ccc(N(c3ccc(-c4ccccc4)cc3)c3ccc(N(c4ccc(-c5ccccc5)cc4)c4ccc(-c5ccccc5)cc4)cc3)cc2)cc1 [Comparison Example 4, reference compound] |
| 22 mg/mL (≈ 24.4 mM) | Cc1cc(-c2ccc(N(c3ccc(-c4ccccc4)cc3)c3ccc4c(c3)C(C)(C)c3ccccc3-4)cc2)cc(C)c1N(c1ccc(-c2ccccc2)cc1)c1ccc2c(c1)C(C)(C)c1ccccc1-2 [Example 1] |
| 28 mg/mL (≈ 31.5 mM) | Cc1cccc(-c2ccc(N(c3ccc(-c4cccc(C)c4)cc3)c3ccc4c(c3)C(C)(C)c3cc(N(c5ccc(-c6cccc(C)c6)cc5)c5ccc(-c6cccc(C)c6)cc5)ccc3-4)cc2)c1 [Example 2] |
| 30 mg/mL (≈ 30.9 mM) | Cc1cccc(C)c1-c1ccc(N(c2ccc3c(c2)C(C)(C)c2ccccc2-3)c2ccc3c(c2)C(C)(C)c2cc(N(c4ccc(-c5c(C)cccc5C)cc4)c4ccc5c(c4)C(C)(C)c4ccccc4-5)ccc2-3)cc1 [Example 3] |
| 35 mg/mL (≈ 36.2 mM) | Cc1cc(N(c2ccc3c(c2)C(C)(C)c2ccccc2-3)c2ccc3c(c2)C(C)(C)c2ccccc2-3)ccc1-c1ccc(N(c2ccc3c(c2)C(C)(C)c2ccccc2-3)c2ccc3c(c2)C(C)(C)c2ccccc2-3)cc1 [Example 4] |
